Data reported in patent US7939554B2, “Protein phosphatase inhibitors” (The Cleveland Clinic Foundation, priority 2006, dated 2011).

Legend:
Type in all cases: cell-based
intracellular SHP-1 = biological target: T1, intracellular SHP-1 (Homo sapiens, UniProt P29350); assay: tyrosine phosphorylation of SHP-1 substrates in Jurkat cells (SDS-PAGE/Western blotting, densitometry); settings: for level capable of inhibiting intracellular SHP-1: Jurkat T cells
T1 construct: endogenous in cells; host or cells: Jurkat
T1 sequence (P29350 whole entry): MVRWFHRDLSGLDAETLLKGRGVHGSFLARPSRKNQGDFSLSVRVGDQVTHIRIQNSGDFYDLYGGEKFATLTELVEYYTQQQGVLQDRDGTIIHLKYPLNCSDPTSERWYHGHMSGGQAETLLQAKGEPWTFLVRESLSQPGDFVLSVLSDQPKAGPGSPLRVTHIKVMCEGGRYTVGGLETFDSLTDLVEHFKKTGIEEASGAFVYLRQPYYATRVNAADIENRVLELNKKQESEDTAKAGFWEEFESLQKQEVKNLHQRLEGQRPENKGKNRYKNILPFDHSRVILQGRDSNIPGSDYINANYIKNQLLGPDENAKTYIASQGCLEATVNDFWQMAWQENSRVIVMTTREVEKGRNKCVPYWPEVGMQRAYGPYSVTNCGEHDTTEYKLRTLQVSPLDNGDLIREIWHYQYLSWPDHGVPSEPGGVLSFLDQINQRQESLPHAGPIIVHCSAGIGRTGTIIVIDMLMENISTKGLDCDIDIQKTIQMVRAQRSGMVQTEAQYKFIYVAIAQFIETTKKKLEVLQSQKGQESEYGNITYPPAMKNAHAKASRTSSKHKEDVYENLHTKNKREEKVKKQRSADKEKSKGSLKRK
Description: (§1) Jurkat cells in culture medium (3×10^6 cells/ml, 1 ml/tube) were treated with agents for designated times at room temperature. After brief centrifuging in a microfuge (4,000 rpm, 2 min), the cell pellet was lysed on ice for 30 min in 1001 of cold lysis buffer (1% NP40, 50 mM Tris, pH 7.4, 150 mM NaCl, 20 mM NaF, 0.2 mM Na3VO4 and 1 mM Na3MO4) containing a cocktail of proteinase inhibitors (Sigma, 1 tablet/10 ml). The lysates were cleared by centrifuging (14,000 rpm, 10 min) in a microfuge at 4° C. to remove insoluble parts, mixed with equal volume of 2×SDS-PAGE sample buffer, boiled for 5 min and analyzed (˜3×10^5 cells/well) by SDS-PAGE/Western blotting. Relative intensities of phosphotyrosine bands were quantified through densitometry analysis.
as §1, with “100 μl” for “1001”, “blotting as described previously (23, 24).” for “blotting.”
as §1, with “100 μl” for “1001”, “blotting as described previously (17, 18).” for “blotting.”

mouse splenocytes = assay: induction of IFNγ+ cells in mouse splenocytes in vitro (ELISPOT)
Description: The splenocytes were cultured in RPMI 1640 medium supplemented with 10% FCS in the absence or presence of designated agents for 16 hrs in flat-bottom 96-well plates coated with a monoclonal antibody specific for mouse IFNγ (mouse IFNγ ELISPOT Kit, R & D System). The plates were then processed for in situ detection of IFNγ+ cells by ELISA following the manufacturer's procedure. Scanning and counting of IFNγ+ cells in the plates were accomplished using an automatic ELISPOT reader with Immunospot2 software (Cellular Technology Ltd). Mouse splenocytes were also untreated or treated with agents for 16 hrs in culture dishes and then stained with appropriate isotype control antibodies or FICT-labeled anti-CD3 monoclonal antibody (BD) plus PE-labeled monoclonal antibody (BD) for intracellular IFNγ following established procedures. The stained samples were washed 3 times, re-suspended in 200 μl of 1% para-formaldehyde solution and analyzed (20,000 cells/sample) using a BD FACS Caliburs cytometer and WinList software.
The splenocytes were cultured in RPMI 1640 medium supplemented with 10% FCS in the absence or presence of designated agents for 16 hrs in flat-bottom 96-well plates coated with a monoclonal antibody specific for mouse IFNγ (mouse IFNγ ELISPOT Kit, R & D System). The plates were then processed for in situ detection of IFNγ+ cells by ELISA following the manufacturer's procedure. Scanning and counting of IFNγ+ cells in the plates were accomplished using an automatic ELISPOT reader with Immunospot2 software (Cellular Technology Ltd).

SHP-2 = biological target: T2, SHP-2 (Homo sapiens, UniProt Q06124); assay: pERK1/2 levels in L5-treated Jurkat cells; design: endogenous in cells; host or cells: Jurkat; settings: not at lower doses (0.1 to 0.001 μg/ml)
T2 sequence (Q06124 1-593): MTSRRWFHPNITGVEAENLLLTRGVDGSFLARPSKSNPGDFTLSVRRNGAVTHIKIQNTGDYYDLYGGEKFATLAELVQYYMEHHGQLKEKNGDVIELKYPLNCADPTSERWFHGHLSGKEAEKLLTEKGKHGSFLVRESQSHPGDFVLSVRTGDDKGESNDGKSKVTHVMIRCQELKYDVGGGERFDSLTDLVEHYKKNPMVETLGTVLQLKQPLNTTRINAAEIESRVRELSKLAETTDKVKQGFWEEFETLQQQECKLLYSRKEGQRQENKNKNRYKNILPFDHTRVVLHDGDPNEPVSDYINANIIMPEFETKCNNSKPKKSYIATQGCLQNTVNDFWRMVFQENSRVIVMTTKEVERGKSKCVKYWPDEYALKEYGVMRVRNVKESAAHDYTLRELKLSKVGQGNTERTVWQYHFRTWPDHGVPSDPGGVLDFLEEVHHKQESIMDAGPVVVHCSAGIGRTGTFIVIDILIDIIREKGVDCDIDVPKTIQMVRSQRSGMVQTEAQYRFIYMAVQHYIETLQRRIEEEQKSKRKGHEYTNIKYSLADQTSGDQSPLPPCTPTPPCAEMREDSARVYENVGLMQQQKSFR
Description: as §1
To assess the effects of L5 on other phosphatases, pERK1/2 and pLck-pY505 in L5-treated Jurkat cells were quantified. SHP-2 is known to be a positive mediator of pERK1/2 whereas pLck-pY505 is dephosphorylated by PTPase CD45.

SMILES: O=C1C=CC(=O)C(c2cc(Cl)ccc2Cl)=C1 [L5]
- pLck-pY394 induction (intracellular SHP-1; 0.01 μg/ml, 10 min): 2-3 fold
- pSlp76 level (intracellular SHP-1; 0.01, 0.1, 1 or 3 μg/ml): obviously increased
- pZap70 level (intracellular SHP-1; 0.01, 0.1, 1 or 3 μg/ml): obviously increased
- pLck-pY394 induction (intracellular SHP-1; 0.1, 1 or 3 μg/ml, 10 min): > 4 folds
- dose effective in inducing pLck-pY394 (lowest / only effective dose) (intracellular SHP-1; 10 min treatment): 0.01 μg/ml
- level capable of inhibiting intracellular SHP-1 (intracellular SHP-1): 10 ng/mL
- level capable of inhibiting intracellular SHP-1 (intracellular SHP-1; molar equivalent): ~40 nM
- pLAT level (intracellular SHP-1; L5-treated Jurkat cells): induced
- potency relative to SSG (intracellular SHP-1; by weight): approximately 1,000 fold
- potency relative to SSG (intracellular SHP-1; in equal molar ratios): ~350 fold
- pLck-pY394 induction versus untreated control (intracellular SHP-1; lead compounds, 10 min, densitometry, FIG. 2): ~10 fold
- induction of IFNγ+ cells (mouse splenocytes; 0.001 μg/ml, 16 hrs): inactive
- increase of IFNγ+ cells in splenocytes (mouse splenocytes; 1 μg/ml, 16 hrs): ~14 fold
- increase of IFNγ+ cells in splenocytes (mouse splenocytes; 3 μg/ml, 16 hrs): ~26 fold
- increase of IFNγ+ cells in splenocytes (mouse splenocytes; 10 μg/ml, 16 hrs): ~17 fold
- increase of IFNγ+ cells in splenocytes (mouse splenocytes; 30 μg/ml, 16 hrs): ~10 fold
- minimal effective dose for IFNγ+ cell induction (mouse splenocytes; FIG. 11): 10 ng/mL
- induction of IFNγ+ cells (mouse splenocytes; low doses (0.01 to 1 μg/ml), same mouse, FIG. 16): 3-4 fold
- effectiveness relative to SSG in inducing IFNγ+ cells (mouse splenocytes; maximal induction at a comparable dose, mouse splenocytes): ~58 fold
- dose reducing pERK1/2 levels (SHP-2): 1 μg/ml
